Series [1] is described as follows: VSMC viability (MTS), compounds only. As to conditions: human, compound only, read-out: VSMC viability (MTS), % of medium control. Format: cell-based, human.
The target of series [2] is T1, Serotonin (5-Hydroxytryptamine) 5-HT2C (Homo sapiens, UniProt P28335).
T1 construct: purchased Eurofins Panlabs Discovery Services Taiwan, Ltd
Kind of series: Off-target 271800. Format: binding. As for the experimental part: (§1) The potential off-target activity of 10 µM (OEG2)2-IP4 was assessed against a panel of 87 enzymes, receptors, or ion channels that are used in standard safety pharmacology screens.
(§2) 3.2. Off-target screening assay
(§3) The experiments were conducted by a contract research organization (Eurofins Panlabs Discovery Services Taiwan, Ltd.) and details on the respective assays can be retrieved via the catalog number provided in Supplementary Table 11 from the company’s webpage
(§4) (https://www.eurofinsdiscoveryservices.com/). […]
(§5) At sacrifice the left tibia of animals of the rat model with dietary adenine/high-phosphate-induced uremia and VC was collected, fixed with 70% v/v EtOH and embedded in methyl methacrylate. The trabecular bone compartment is known to be the most metabolic active i.e. actively re-structured bone compartment in CKD. Therefore, histomorphometric and micro-computed tomography (µCT) analysis of bone was performed on the trabecular compartment. Tibial sections were Goldner-stained for histomorphometric analysis of the proximal metaphysis using the AxioVision Release 4.5 software, as […]
(§6) described previously5. […]

Series [3] deals with T2, Transporter, Dopamine (DAT) (Homo sapiens, UniProt Q01959).
T2 construct: purchased Eurofins Panlabs Discovery Services Taiwan, Ltd
Kind of series: Off-target 220320. It is filed as binding. As for the experimental part: as §1, §2
(§7) The experiments were conducted by a contract research organization (Eurofins Panlabs Discovery
(§8) Services Taiwan, Ltd.) and details on the respective assays can be retrieved via the catalog number
(§9) provided in Supplementary Table 11 from the company’s webpage
as §4

The target of series [4] is T3, Muscarinic M3 (Homo sapiens, UniProt P20309).
T3 construct: purchased Eurofins Panlabs Discovery Services Taiwan, Ltd
Kind of series: Off-target 252810. It is filed as binding. Here is the method:
as §1, §2, §3, §4, §5, §6

For series [5], the target named is T4, Dopamine D2L (Homo sapiens, UniProt P14416).
T4 construct: purchased Eurofins Panlabs Discovery Services Taiwan, Ltd
Kind of series: Off-target 219500 (D2L). It is filed as binding. As for the experimental part:
as §1, §2, §7, §8, §9, §4

A short description of series [6]: PK after sub-chronic s.c. treatment (7 days). It is filed as in vivo, male Sprague-Dawley rats. As to conditions: for plasma concentration: unit not given. As for the experimental part:
To study PK in healthy animals, male Sprague-Dawley rats (Harlan, Correzzana, Italy) were housed up to three per cage with free access to water and standard chow (pellets 12 mm, global diet 2018 certificate, Mucedola, Srl, Settimo Milanese, Italy), and submitted to a 12-h light/dark cycle. Animals were administered i.v. 10 mg/kg of (OEG2)2-IP4 in saline solution i.v. (30 s bolus, 5 mL/kg) and s.c. (5 mL/kg), respectively, in three animals per route and treatment. […] Plasma calcium concentration was determined in pre-dose samples and in t = 30 min samples of both acute and chronic treatments using the calcium colorimetric assay. Blood samples of 100 µL were drawn at several time points from the caudal vein, centrifuged at (3000 × g, 4 °C, 10 min) and stored at −80 °C until analysis by liquid chromatography–tandem mass spectrometry (LC-MS/MS).

In series [7] the target is T5, Cholecystokinin CCK1 (CCKA) (Homo sapiens, UniProt P32238).
T5 construct: purchased Eurofins Panlabs Discovery Services Taiwan, Ltd
Kind of series: Off-target 218030. It is filed as binding. Here is the method:
as §1, §2, §3, §4, §5, §6

Series [8] has as its system panel of 87 enzymes, receptors, or ion channels. Kind of series: Off-target panel of 87 enzymes, receptors, or ion channels. Format: biochemical. The settings on record: 10 µM. As for the experimental part:
as §1, §2, §3, §4, §5, §6

Series [9] deals with T6, Phosphodiesterase PDE3 (Homo sapiens, UniProt Q14432).
T6 construct: purchased Eurofins Panlabs Discovery Services Taiwan, Ltd
Kind of series: Off-target 152000. Format: biochemical. As for the experimental part:
as §1, §2, §7, §8, §9, §4

Where “and” joins values, the source holds several entries; their conditions need not be identical. Equal entries are not always repeated.

T4 sequence (P14416 whole entry): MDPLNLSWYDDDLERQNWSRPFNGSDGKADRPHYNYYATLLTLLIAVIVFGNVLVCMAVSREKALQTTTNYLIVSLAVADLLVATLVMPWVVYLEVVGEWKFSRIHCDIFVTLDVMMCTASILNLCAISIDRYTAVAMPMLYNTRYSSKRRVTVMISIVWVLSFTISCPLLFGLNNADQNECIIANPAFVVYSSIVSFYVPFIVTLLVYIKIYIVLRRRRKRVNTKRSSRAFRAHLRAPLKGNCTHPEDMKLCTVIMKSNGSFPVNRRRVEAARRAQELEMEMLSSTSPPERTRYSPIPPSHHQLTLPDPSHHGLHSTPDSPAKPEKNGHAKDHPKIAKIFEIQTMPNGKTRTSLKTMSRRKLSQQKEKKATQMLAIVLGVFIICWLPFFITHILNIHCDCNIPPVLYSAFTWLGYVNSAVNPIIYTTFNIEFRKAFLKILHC
T1 sequence (P28335 33-458): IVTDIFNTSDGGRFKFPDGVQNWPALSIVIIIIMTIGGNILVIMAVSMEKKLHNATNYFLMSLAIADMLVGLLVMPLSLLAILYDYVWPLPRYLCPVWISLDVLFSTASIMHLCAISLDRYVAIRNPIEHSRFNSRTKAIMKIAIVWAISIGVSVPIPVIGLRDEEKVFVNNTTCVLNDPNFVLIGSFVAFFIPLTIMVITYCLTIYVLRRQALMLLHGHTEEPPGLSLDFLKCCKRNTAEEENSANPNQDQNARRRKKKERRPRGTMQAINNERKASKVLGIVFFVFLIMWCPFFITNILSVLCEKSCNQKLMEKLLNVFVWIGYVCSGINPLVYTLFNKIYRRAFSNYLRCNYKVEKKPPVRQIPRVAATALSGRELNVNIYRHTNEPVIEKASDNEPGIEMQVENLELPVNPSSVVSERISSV
T2 sequence (Q01959 whole entry): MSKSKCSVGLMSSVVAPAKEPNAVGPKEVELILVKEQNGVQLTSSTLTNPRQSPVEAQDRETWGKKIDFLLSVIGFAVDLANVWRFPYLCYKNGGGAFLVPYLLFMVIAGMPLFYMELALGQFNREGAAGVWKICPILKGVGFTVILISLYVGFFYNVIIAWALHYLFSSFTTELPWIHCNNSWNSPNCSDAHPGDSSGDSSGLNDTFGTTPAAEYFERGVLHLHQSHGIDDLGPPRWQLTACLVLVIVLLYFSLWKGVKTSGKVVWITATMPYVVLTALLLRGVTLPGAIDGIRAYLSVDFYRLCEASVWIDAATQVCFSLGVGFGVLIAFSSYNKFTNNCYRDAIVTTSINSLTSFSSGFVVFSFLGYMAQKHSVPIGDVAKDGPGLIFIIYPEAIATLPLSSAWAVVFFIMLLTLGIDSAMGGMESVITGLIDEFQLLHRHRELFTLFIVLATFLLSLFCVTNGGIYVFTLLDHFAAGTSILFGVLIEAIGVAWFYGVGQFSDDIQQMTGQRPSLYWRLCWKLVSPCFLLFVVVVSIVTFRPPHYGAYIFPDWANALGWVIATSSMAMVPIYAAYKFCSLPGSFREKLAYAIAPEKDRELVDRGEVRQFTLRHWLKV
T3 sequence (P20309 whole entry): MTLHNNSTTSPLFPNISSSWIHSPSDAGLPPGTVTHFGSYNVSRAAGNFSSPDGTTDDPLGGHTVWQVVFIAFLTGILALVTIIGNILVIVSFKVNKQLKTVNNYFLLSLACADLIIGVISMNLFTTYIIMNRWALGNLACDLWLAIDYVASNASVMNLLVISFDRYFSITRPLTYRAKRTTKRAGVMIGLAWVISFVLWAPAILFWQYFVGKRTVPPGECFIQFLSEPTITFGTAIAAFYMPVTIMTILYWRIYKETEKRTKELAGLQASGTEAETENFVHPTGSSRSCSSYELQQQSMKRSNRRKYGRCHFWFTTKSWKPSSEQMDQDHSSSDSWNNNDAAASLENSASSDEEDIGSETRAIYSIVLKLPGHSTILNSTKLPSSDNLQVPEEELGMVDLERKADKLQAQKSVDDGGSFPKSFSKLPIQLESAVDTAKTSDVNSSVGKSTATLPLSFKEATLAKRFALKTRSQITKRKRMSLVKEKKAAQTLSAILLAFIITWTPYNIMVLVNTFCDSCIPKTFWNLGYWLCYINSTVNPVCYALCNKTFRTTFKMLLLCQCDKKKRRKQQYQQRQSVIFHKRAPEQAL
T6 sequence (Q14432 whole entry): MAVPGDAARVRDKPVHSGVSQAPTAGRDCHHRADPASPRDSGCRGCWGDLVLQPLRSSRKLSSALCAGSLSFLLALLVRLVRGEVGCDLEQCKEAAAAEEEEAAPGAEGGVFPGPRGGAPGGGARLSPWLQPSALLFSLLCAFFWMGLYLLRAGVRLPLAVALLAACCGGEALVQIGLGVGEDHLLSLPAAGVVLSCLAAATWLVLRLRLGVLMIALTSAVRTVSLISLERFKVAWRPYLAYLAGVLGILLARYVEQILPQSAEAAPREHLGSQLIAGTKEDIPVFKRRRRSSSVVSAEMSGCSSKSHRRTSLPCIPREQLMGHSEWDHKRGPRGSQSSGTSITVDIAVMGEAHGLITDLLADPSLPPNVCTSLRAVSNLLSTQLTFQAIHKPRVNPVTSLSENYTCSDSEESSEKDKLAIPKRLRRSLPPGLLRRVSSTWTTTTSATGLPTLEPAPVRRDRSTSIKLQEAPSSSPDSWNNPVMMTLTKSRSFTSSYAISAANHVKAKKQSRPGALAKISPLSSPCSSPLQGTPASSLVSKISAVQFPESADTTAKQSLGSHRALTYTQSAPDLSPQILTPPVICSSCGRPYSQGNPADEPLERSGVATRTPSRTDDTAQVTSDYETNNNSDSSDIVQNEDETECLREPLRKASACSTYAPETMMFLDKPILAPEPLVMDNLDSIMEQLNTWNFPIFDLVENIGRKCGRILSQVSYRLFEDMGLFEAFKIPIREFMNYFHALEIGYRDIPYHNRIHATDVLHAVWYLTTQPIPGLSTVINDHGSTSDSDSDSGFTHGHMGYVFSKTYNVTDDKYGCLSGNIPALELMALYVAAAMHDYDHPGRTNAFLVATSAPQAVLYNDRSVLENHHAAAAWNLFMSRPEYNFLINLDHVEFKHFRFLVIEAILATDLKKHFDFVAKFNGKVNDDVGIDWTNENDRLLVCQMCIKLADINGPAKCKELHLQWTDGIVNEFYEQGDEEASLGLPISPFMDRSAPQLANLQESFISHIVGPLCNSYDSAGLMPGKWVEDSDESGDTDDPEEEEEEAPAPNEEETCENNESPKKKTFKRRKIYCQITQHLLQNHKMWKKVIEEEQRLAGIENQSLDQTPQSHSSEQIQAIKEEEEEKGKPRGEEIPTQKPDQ
T5 sequence (P32238 whole entry): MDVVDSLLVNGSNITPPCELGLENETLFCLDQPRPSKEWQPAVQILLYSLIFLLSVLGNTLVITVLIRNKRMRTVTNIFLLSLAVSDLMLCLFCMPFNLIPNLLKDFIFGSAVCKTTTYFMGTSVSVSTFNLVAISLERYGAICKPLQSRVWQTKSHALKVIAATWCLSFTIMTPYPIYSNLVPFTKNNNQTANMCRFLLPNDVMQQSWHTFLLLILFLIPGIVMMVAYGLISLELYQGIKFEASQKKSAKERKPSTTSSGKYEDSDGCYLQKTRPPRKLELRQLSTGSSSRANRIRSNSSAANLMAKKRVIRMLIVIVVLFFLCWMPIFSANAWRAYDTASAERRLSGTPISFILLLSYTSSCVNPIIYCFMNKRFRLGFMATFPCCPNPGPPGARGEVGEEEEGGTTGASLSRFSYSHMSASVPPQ

Consider `COCCOCCO[C@@H]1[C@@H](OP(=O)(O)O)[C@H](OCCOCCOC)[C@@H](OP(=O)(O)O)[C@@H](OP(=O)(O)O)[C@H]1OP(=O)(O)O` [(OEG2)2-IP4, 4,6-Di-O-(methoxy-diethyleneglycol)-myo-inositol-1,2,3,5-tetrakis(phosphate)], for which, in series [1] (1 µM), the viability (usually a read-out of living cells in per cent, often relative to untreated cells) at 1 µM was 108%. The viability at 10 µM in series [1] (10 µM) worked out at 106%. Also, the inhibition (usually the change of the read-out against control, counted positive when it falls) at 10 µM in series [2] is -5%; in [3], 19%; in series [4] it was -6%; in series [5], -10%; in series [7], 6%; in series [9], -1%. Also, the “accumulation following repeated s.c. administration” value in [6] (50 mg/kg for 7 days) is “No significant accumulation”. The plasma concentration in [6] (50 mg/kg/day s.c. sub-chronic (7 days), time 0) is 0.18 and 0.24 and 0.25 and 0.16; in [6] (50 mg/kg/day s.c. sub-chronic, time 0.5), 82.39 and 90 and 95.45 and 69.57; in series [6] (50 mg/kg/day s.c. sub-chronic, time 1), 64.18 and 72.74 and 67.54 and 66.21; in [6] (50 mg/kg/day s.c. sub-chronic, time 2), 31.83 and 38.97 and 22.86 and 35.06; in [6] (50 mg/kg/day s.c. sub-chronic, time 8) it was 0.78 and 0.86 and 0.76 and 0.85; in series [6] (50 mg/kg/day s.c. sub-chronic, time 24) it was 0.07 and 0.13 and 0.08. In addition, in series [8], the “off-target activity in 87 biochemical assays” value is listed as “did not significantly inhibit or stimulate any”.

Source of the values: publication PMC7002685, “Inhibition of vascular calcification by inositol phosphates derivatized with ethylene glycol oligomers” (Nature Communications, 2020).
